Measurements taken from patent US6878736B1, “Histamine H3 receptor ligands” (James Black Foundation Limited, priority 1998, dated 2005).
Counter-ions that a name gives are not always drawn.

biological target: T1, Histamine H3 receptor (Cavia porcellus, UniProt Q9JI35); experiment: Histamine H3 functional assay, guinea pig ileum (ileal longitudinal muscle, myenteric plexus); parameters: species or system tissue; details: antagonist affinity from rightward shift of R-(α)-methylhistamine E/[A] curves (Schild); typical variance ±0.15 log units; read-out: pKb (Guinea pig ileum) (converted)
T1 sequence (Q9JI35 whole entry): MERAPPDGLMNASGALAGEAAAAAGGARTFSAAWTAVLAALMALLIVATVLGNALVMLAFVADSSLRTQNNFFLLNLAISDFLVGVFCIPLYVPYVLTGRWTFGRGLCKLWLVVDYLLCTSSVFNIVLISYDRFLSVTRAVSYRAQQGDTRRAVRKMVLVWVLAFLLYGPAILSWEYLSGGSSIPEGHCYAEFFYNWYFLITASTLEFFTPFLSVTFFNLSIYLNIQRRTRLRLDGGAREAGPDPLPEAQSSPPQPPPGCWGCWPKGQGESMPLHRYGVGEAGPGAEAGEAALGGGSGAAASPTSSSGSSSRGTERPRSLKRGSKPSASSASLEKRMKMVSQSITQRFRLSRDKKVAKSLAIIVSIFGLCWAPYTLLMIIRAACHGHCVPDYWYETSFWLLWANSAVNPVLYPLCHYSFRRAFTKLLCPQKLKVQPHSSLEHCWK
Experimental: • 1. J. Med. Chem 1994, 314. • 2. WO 97/29092 Histamine H3 Functional Assay—Guinea Pig Ileum
The biological activity of the compounds of the examples was measured using the ileal longitudinal muscle, myenteric plexus assay described by Paton and Aboo Zar (J. Physiol. 1968, 194, 13-33). Male Dunkin-Hartley guinea pigs (250-300 g) were employed. Briefly, a 50 cm portion of ileum proximal to the caecum was removed, after discarding the terminal 20 cm. Ileal segments (3 cm) were cleaned by passing Krebs-Henseleit buffer containing 3 μM mepyramine gently through the ileum using a Pasteur pipette (size: 13.8 cm length, 0.65 cm diameter). To avoid unnecessary damage to the tissue, Krebs-Henseleit buffer was passed through the ileal segment, while it was lying horizontally on a petri dish. Therefore, the ileum was not over-distended and the buffer flowed through with ease. Each segment was then passed over a Pasteur pipette and the longitudinal muscle layer and adhering myenteric plexus was teased away using moist cotton wool, by stroking tangentially away from the mesenteric attachment. The tissues were suspended in 20 ml organ baths containing Krebs-Henseleit buffer at 37±1° C. and gassed with […]. The tissues were ligated to two parallel stainless steel wires, situated between two platinum electrodes (0.76 cm length, 0.06 cm diameter). All measurements were recorded isometrically (Grass FTO3 transducer). Following an initial loading tension of 1 g, the tissues were stimulated with electrical pulses at a frequency of 0.1 Hz and a pulse duration of 0.5 msec, as described by Kosterlitz & Watt (Br. J. Pharmacol. 1968, 266276). Initially, the tissues were stimulated at supramaximal (1.3 fold times maximal) voltage for a period of 30 min and then the tissues were washed and re-stimulated. A “sighter dose” of the selective histamine H3-receptor agonist, R-(α)-methylhistamine (0.3 μM) (Arrang et al. Nature, 1987, 117-123), was administered. Upon generation of response, the “sighter dose” was removed from the tissues by “washout” (6 washes over 60 min) and during this period the electrical stimulation was switched off. The tissues were then re-stimulated and allowed to stabilise prior to the addition of drug treatments, which were allocated on a randomised block basis to the organ baths. Following the incubation period, a single cumulative E/[A] curve was obtained. The experimental E/[A] curve data was expressed as the percentage inhibition of the peak height of electrically-stimulated contraction. Antagonist affinity values were calculated from the degree of rightward shift of the R-(α)-methylhistamine E/[A] curves using Schild's methods (Arunlakshana & Schild Br. J. Pharmacol. 1959, 48-58). Typical variance in this assay is ±0.15 log units.

Row | SMILES | Kb [nM]
1 | N=C(NCCCN1CCCC1)NCc1ccc(C(F)(F)F)cc1 [Example 5, N-(4-(Trifluoromethyl)benzyl)-N′-(3-pyrrolidin-1-yl-propyl)-guanidine bis-hydrochloride] | 794

biological target: T1, Histamine H3 receptor; experiment: Histamine H3 radioligand binding assay, guinea pig cortex ([3H]-R-α-methylhistamine); details: guinea pig cortex membranes, competition with 1 nM [3H]-R-α-methylhistamine
Experimental: The compounds of the invention were also tested in a guinea pig cortex binding assay, as follows:
Histamine H3 Radioligand Binding Assay—Guinea Pig Cortex
Male Dunkin Hartley guinea pigs (200-300 g) were used. The whole brain was removed and immediately placed in ice-cold 20 mM Hepes-NaOH buffer (pH7.4 at 21±3° C.). The cortex was dissected, weighed and homogenised in ice-cold 20 mM Hepes-NaOH buffer (pH7.4 at 21±3° C.) (50 ml/guinea-pig cortex) using a polytron (Kinematica AG; PT-DA 3020/2TS, 3×3 s). The homogenate was centrifuged at 100×g for 5 min and the supernatants pooled and stored at 4° C. The pellets were rehomogenised in fresh ice-cold buffer (80 ml) and recentrifuged (100×g for 5 min). The supernatants were pooled and pellets rehomogenised and recentrifuged (100×g for 5 min). All supernatants were pooled and centrifuged at 39,800×g for 12 min at 4° C. The final pellet was resuspended in 20 mM Hepes-NaOH buffer (pH7.4 at 21±3° C.) to a tissue concentration of 7.5 mg.ml^−1, using a teflon-in-glass homogeniser.
Guinea pig cortex membranes (400 μl) were incubated for 165 min at 21±3° C. in a final volume of 500 μl with 20 mM Hepes-NaOH buffer containing [^3H]-R-α-methylhistamine (50 μl; 1 nM) and competing compound. Total and non-specific binding of [^3H]-R-α-methylhistamine were defined using 50 μl of buffer and 50 μl of 10 μM thioperamide, respectively. The assay was terminated by rapid filtration through Whatman GF/B filters, presoaked (2 hr) in 0.1% polyethyleneimine, using a Brandell Cell Harvester. The filters were washed (3×3 ml) with ice-cold 50 mM Tris-HCl (pH6.9 at 21±3° C.), transferred into scintillation vials, 5 ml liquid scintillation cocktail was added and after 4 hours the bound radioactivity was determined by counting (4 min) in a Beckman liquid scintillation counter.
Data are analysed using GraphPad prism and the general equation for a competition curve with variable Hill slope (nH). [formula] where • X is the log concentration of competing compound, • Y is the binding obtained at each concentration of X, • pIC50 is the concentration of the competitor required to compete for half of the specific binding.
The IC50 is converted to the K1 using the Cheng Prusoff equation, K1=IC50/(1+(L/KD)) where • IC50 is the concentration of competitor required to compete for half the specific binding, • L is the radioligand concentration used, • KD is the equilibrium dissociation constant for the radioligand determined by saturation experiments.

Row | SMILES | pKi (Guinea pig cortex)
2 | Cl.Cl.N=C(NCCCN1CCCC1)NCC1CCCCC1 [Example 39, N-Cyclohexyl-methyl-N′-(3-pyrrolidin-1-yl-propyl)-guanidine bis-hydrochloride] | 7.4

same assay, conditions: guinea pig cortex membranes, competition with 1 nM [3H]-R-α-methylhistamine; read-out: pKi (Guinea pig cortex) (converted)

Row | SMILES | Ki [nM]
3 | N=C(NCCCN1CCOCC1)NCc1ccc(Cl)cc1 [Example 15, N-(4-Chlorobenzyl)-N′-(3-morpholin-4-yl-propyl)-guanidine bis-hydrochloride] | 794
4 | N=C(NCCc1ccc(Cl)cc1)NCCN1CCCC1 [Example 23, N-(2-(4-Chlorophenyl)ethyl)-N′-(2-pyrrolidin-1-yl-ethyl)-guanidine bis-hydrochloride] | 316
5 | CN1CCCC1CCNC(=N)NCc1ccc(Cl)cc1 (stereo not shown) [Example 27, N-(4-Chlorobenzyl)-N′-(2-(1-methyl-pyrrolidin-2-yl)-ethyl)-guanidine bis-hydrochloride] | 158
6 | N=C(NCCCCCN1CCCC1)NCc1ccc(C2CCCCC2)cc1 [Example 57, N-(4-Cyclohexylbenzyl)-N′-(5-pyrrolidin-1-yl-pentyl)-guanidine bis-hydrochloride] | 20
7 | CN1CCN(CCCCNS(=O)(=O)c2ccc3ccccc3c2)CC1 [Example 85, N-(4-(4-Methyl-piperazin-1-yl)-butyl)-2-naphthalenesulfonamide] | 158
8 | CN(CCN1CCCC1)S(=O)(=O)c1ccc2ccccc2c1 [Example 86, N-(2-Pyrrolidin-1-yl-ethyl)-N-methyl-2-naphthalenesulfonamide] | 2510
9 | [O-][S+](NCCCN1CCCC1)c1ccc2ccccc2c1 (stereo not shown) [Example 87, N-(3-Pyrrolidin-1-yl-propyl)-2-naphthalenesulfinamide] | 1260
10 | CN1CCCCC1CCNS(=O)(=O)c1ccc2ccccc2c1 (stereo not shown) [Example 90, N-(2-(1-Methyl-piperidin-2-yl)-ethyl)-2-naphthalenesulfonamide] | 1260
11 | CN1CCCC(CCCNS(=O)(=O)c2ccc3ccccc3c2)C1 (stereo not shown) [Example 92, N-(3-(1-Methyl-piperidin-3-yl)-propyl)-2-naphthalenesulfonamide] | 2000
12 | CN1CCC(CCCNS(=O)(=O)c2ccc3ccccc3c2)CC1 [Example 93, N-(3-(1-Methyl-piperidin-4-yl)-propyl)-2-naphthalenesulfonamide] | 3160
13 | CN1CCCC1CCNS(=O)(=O)c1cccc2ccccc12 (stereo not shown) [Example 94, N-(2-(1-Methyl-pyrrolidin-2-yl)-ethyl)-1-naphthalenesulfonamide] | 2510
14 | Cc1ccc(S(=O)(=O)NCCC2CCCN2C)cc1 (stereo not shown) [Example 95, N-(2-(1-Methyl-pyrrolidin-2-yl)ethyl)4-toluenesulfonamide] | 1580
15 | CN1CCCC1CCNS(=O)(=O)c1ccc(Cl)cc1 (stereo not shown) [Example 96, N-(2-(1-Methyl-pyrrolidin-2-yl)-ethyl)-4-chlorophenylsulfonamide] | 1580
16 | CN1CCC[C@H]1CCNS(=O)(=O)Cc1ccc(Cl)cc1 [Example 97, N-(2-(1-Methyl-pyrrolidin-2S-yl)-ethyl)-(4-chlorophenyl)-methanesulfonamide] | 1580
17 | CN1CCC[C@H]1CCCNS(=O)(=O)NCc1ccccc1 [Example 108, N-Benzyl-N′-(3-(1-methyl-pyrrolidin-2S-yl)-propyl)-sulfamide] | 1580
18 | CN1CCC[C@@H]1CCCNS(=O)(=O)NCc1ccc(Cl)cc1 [Example 109, N-(4-Chlorobenzyl)-N′-(3-(1-methyl-pyrrolidin-2R-yl)-propyl)-sulfamide] | 200
19 | CN1CCC[C@H]1CCCNS(=O)(=O)NCCc1ccc(Cl)cc1 [Example 111, N-(2-(4-Chlorophenyl)-ethyl)-N′-(3-(1-methyl-pyrrolidin-2S-yl)-propyl)-sulfamide] | 1580

Further lines, results first:

Row | Ki [nM] | SMILES
20 | 79.4 | CN1CCCC1CCCCCNS(=O)(=O)NCc1ccc(Cl)cc1 (stereo not drawn) [Example 117, N-(4-Chlorobenzyl)-N′-(5-(1-methyl-pyrrolidin-2S-yl)-pentyl)-sulfamide]
21 | 1580 | O=S(=O)(NCCC[C@@H]1CCCN1CCCc1ccc(Cl)cc1)NCc1ccc(Cl)cc1 [Example 118]
22 | 251 | COC(=O)CN(CCC[C@@H]1CCCN1C)S(=O)(=O)NCc1ccc(Cl)cc1 [Example 123, N-(4-Chlorobenyl)-N′-(methoxycarbonylmethyl)-N′-(3-(1-methyl-pyrrolidin-2S-yl)propyl)-sulfamide]
23 | 1260 | CN1CCC[C@H]1CCCN(CCO)S(=O)(=O)NCc1ccc(Cl)cc1 [Example 124, N-(4-Chlorobenzyl)-N′-(2-hydroxyethyl)-N′-(3-(1-methyl-pyrrolidin-2S-yl)propyl)-sulfamide]
24 | 1000 | CN1CCC[C@H]1CCCN(CCCN)S(=O)(=O)NCc1ccc(Cl)cc1 [Example 126, N-(4-Chlorobenzyl)-N′-(3-amino-propyl)-N′-(3-(1-methyl-pyrrolidin-2S-yl)propyl)-sulfamide]
25 | 3160 | CN(C)C(=O)CN(CCC[C@@H]1CCCN1C)S(=O)(=O)NCc1ccc(Cl)cc1 [Example 128, N-(4-Chlorobenzyl)-N′-(dimethylamidomethyl)-N′-(3-(1-methyl-pyrrolidin-2S-yl)propyl)-sulfamide]
26 | 794 | CN1CCC[C@H]1CCCN(CC(=O)NCc1ccc(Cl)cc1)S(=O)(=O)NCc1ccc(Cl)cc1 [Example 129, N-(4-Chlorobenzyl)-N′-(4-chlorobenzylamidomethyl)-N′-(3-(1-methyl-pyrrolidin-2S-yl)propyl)-sulfamide]
27 | 5010 | CN1CCC[C@H]1CCCN(CC(=O)OCc1ccccc1)S(=O)(=O)NCc1ccc(Cl)cc1 [Example 130, N-(4-Chlorobenzyl)-N′-(benyloxycarbonylmethyl)-N′-(3-(1-methyl-pyrrolidin-2S-yl)propyl)-sulfamide]
28 | 1000 | O=S(=O)(NCCN1CCCC1)NCc1ccc(Cl)cc1 [Example 134, N-(4-Chlorobenzyl)-N′-(2-pyrrolidin-1-yl-ethyl)-sulfamide]
29 | 2510 | CN1CCCC1CCCCS(=O)(=O)NCC1CCCCC1 (stereo not drawn) [Example 137, N-Cyclohexyl-methyl-4-(1-methyl-pyrrolidin-2S-yl)-butanesulfonamide]
30 | 1260 | CN1CCCC1CCCCS(=O)(=O)NCC12CC3CC(CC(C3)C1)C2 (stereo not drawn) [Example 138, N-Adamantan-1-yl-methyl-4-(1-methyl-pyrrolidin-2S-yl)-butanesulfonamide]
31 | 794 | CC(C)CN1CCC[C@H]1CCCNS(=O)(=O)Cc1ccc(Cl)cc1 [Example 143]
